According to patent publication US20220363710A1, “SMALL-MOLECULE COMPOUND HAVING A2A ADENOSINE RECEPTOR ANTAGONISM” (ACADEMY OF MILITARY MEDICAL SCIENCES, priority 2019, published 2022):
Like-named read-outs stand apart in the source and are kept apart here.

Legend:
[1] = molecular target: T1, (human) A2A adenosine receptor (Homo sapiens, UniProt P29274); assay: Radioligand binding test ([3H]CGS21680 displacement, hA2A HEK-293 cell membranes); conditions: for IC50: [3H]-CGS 21680 25 nM, hA2A HEK-293 cell membrane, 25° C., 90 minutes, read-out: IC50 (nM), compounds binding to A2A adenosine receptor; for Ki: read-out: Ki (nM), inhibition constant for binding to A2A adenosine receptor
T1 construct: purchased PerkinElmer Research Products (Boston, Mass.); host or cells: HEK-293 cells, stably transfected; membrane preparation
T1 sequence (P29274 whole entry): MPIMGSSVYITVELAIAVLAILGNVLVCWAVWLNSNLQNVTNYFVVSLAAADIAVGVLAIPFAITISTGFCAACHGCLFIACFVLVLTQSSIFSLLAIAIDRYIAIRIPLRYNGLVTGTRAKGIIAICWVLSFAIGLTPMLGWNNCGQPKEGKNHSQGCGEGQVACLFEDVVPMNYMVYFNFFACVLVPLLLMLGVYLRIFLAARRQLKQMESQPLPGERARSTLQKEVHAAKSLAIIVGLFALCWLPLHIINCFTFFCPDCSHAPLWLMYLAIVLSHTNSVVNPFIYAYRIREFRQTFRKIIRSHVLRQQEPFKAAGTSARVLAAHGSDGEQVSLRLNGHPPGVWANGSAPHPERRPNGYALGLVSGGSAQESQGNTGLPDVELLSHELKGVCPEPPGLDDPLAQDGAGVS
Description: Cell membranes stably transfected with (human) A2A adenosine receptor were prepared in HEK-293 cells. The cell membranes were obtained from PerkinElmer Research Products (Boston, Mass.).
CGS 21680 (2-[p-(2-carboxyethyl)phenylethylamino]-5′-ethylcarboxamidoadenosine) was purchased from Selleck (Shanghai, CN).
The A2A adenosine receptors used were all expressed in the cell membranes. The compound was diluted 3 times serially with DMSO (Solarbio, D8371-250 ml) to generate compound source plates with 10 different concentrations (10 μM, 3.3 μM, 1.1 μM, 0.37 μM, 0.12 μM, 0.0412 μM, 0.0137 μM, 0.0046 μM, 0.0015 μM, 0.0005 μM), 250 nL of compound was added to 384-well Opti-plate, sealed with parafilm. […] (final 25 nM) was added to the diluted cell membrane and mixed well. 50 μL of the prepared dilution solution of cell membrane was transferred to the 384-well Opti-plate containing compound and incubated at 25° C. for 90 minutes. 100 μL of 0.5% Polyethyleneimine solution (PEI) was added to […]-96 GF/B filter plate, and soaked for 90 minutes at 4° C., then 500 μL of washing buffer/well (50 mM Tris-HCl, pH 7.4, 154 mM NaCl) was transferred with Cell Harvester to wash the […]-96 GF/B filter plate twice. The mixed system in the Opti-plate was transferred to the washed […]-96 GF/B filter plate, 500 μL of washing buffer/well (50 mM Tris-HCl, pH 7.4, 154 mM NaCl) was used to wash the […]-96 GF/B filter plate 9 times. Incubation was performed at 37° C. for 3 minutes. 40 μL of ULTIMA GOLD scintillation solution (Perkin Elmer, Cat #77-16061) was added to each well, CPM (count per minute) value was read by a MicroBeta liquid scintillation counter (PerkinElmer).

[2] = molecular target: human adenosine receptor A2A (Homo sapiens, UniProt P29274); assay: A2A adenosine receptor cAMP test (LANCE Ultra cAMP, hADORA2A-HEK293 cells); assay type: cell-based
Chain of human adenosine receptor A2A (P29274 whole entry): as above
Excerpt: A2A Adenosine Receptor cAMP Test
Experimental reagents and consumables: DMEM/F12, G418, Penicillin-Streptomycin, Versene Solution, HEPES, Hank's Buffered Saline Solution, PBS (pH 7.4, 1×, sterile), FBS, BSA Stabilizer 7.5%, Rolipram, NECA were separately purchased from Gibico, Hyclone and Sigma. LANCE® Ultra cAMP kit (Eu-cAMP tracer, Ulight-anti-cAMP reagent, cAMP detection buffer) and hADORA2A-HEK293 cells were purchased from PerkinElmer Research Products (Boston, Mass.). All other reagents were of analytical grade and obtained from commercial sources. 384-well polypropylene microplate and 384-well solid white plate were purchased from Labcyte and Corning, respectively.
Experimental instruments: TECAN automated liquid handling workstation, Echo Acoustic Liquid Handler and EnVison multimode plate reader were purchased from TECAN, Labcyte and […], respectively.
The cells stably expressing human adenosine receptor A2A (hADORA2A-HEK293 cells) were cultured in DMEM/F12 medium containing 10% FBS, 1× Penicillin-Streptomycin and 400 μg/ml G418 in a 37° C. and 5% CO2 environment. Before the experiment, the cells were digested with Versene solution, and the cells were collected by centrifugation at 200 g and room temperature for 5 minutes, and finally resuspended with assay buffer (Hank's buffered saline solution, containing 5 mM HEPES, 0.1% BSA stabilizer and 10 μM Rolipram, pH 7.4). The TECAN automated liquid handling workstation was used to dilute the compound in a 384-well polypropylene microplate with DMSO to 11 concentration points in a 3-fold gradient to prepare the compound source plate, in which the 11 concentration points of the compound were 10 mM, 3.33 mM, 1.11 mM., 0.37 mM, 0.12 mM, 0.041 mM, 0.013 mM, 4.57×10^−3 mM, 1.52×10^−3 mM, 5×10−4 mM and 1.7×10^−4 mM. The Echo Acoustic Liquid Handler (Labcyte) was used to transfer the test compound from the compound source plate to an assay plate, in which the transfer volume of the compound was 10 nl/well. The hADORA2A-HEK293 cell suspension was diluted with assay buffer to 30,000 cells/ml, and the cell suspension was transferred to the assay plate at a volume of 10 μl/well (300 cells/well). The assay plate was centrifuged at 150 g for 1 minute and pre-incubated at room temperature for 30 minutes. The Eu-cAMP tracer working solution (Eu-cAMP tracer 40 μl, cAMP detection buffer 1.96 ml) (5 μl/well) was added to the assay plate, and then the Ulight-anti-cAMP working solution (13 μl of Ulight-anti-cAMP reagent and 1.95 ml of cAMP detection buffer) (5 μl/well) was added to the assay plate. The assay plate was rotated at 150 g for 30 seconds and incubated at room temperature for 30 minutes. The EnVison multimode plate reader (PerkinElmer) was used determine the level of cyclic adenosine monophosphate in the final solution (λex=320 nm, λem=665 nm & 615 nm). The EC50 (nM) value of the compound interacting with the A2A adenosine receptor to stimulate the production of cyclic adenosine monophosphate was calculated and the titer of the compound function was expressed as the EC50 (nM) value.
When the test compounds interacted with A2AAR, the EC50 (nM) values for stimulating the production of cyclic AMP were shown in Table 2.

[3] = stimulating the production of cyclic AMP, read-out: cAMP EC50
[4] = stimulating the production of cyclic adenosine monophosphate, read-out: cAMP EC50 values

Structure (SMILES)	IC50 [1]	Ki [1]	melting point	agonistic activity at hA2AAR (cAMP production) [2]	EC50 [2, 3]	EC50 [2, 4]
OC[C@H]1O[C@@H](n2cnc3c2ncn2c(-c4ccc(OCc5ccccc5)c(OCc5ccccc5)c4)nnc32)[C@H](O)[C@@H]1O [Compound 3, (2R,3R,4S,5R)-2-{3-[3,4-di(benzyloxy)phenyl]-7H-[1,2,4]triazolo[3,4-i]purin-7-yl}-5-(hydroxymethyl)tetrahydrofuran-3,4-diol]	> 10000 nM	> 10000 nM	116 °C	–	–	–
CC(=O)Nc1ccc(-c2nnc3c4ncn([C@@H]5O[C@H](CO)[C@@H](O)[C@H]5O)c4ncn23)cc1 [Compound 1, N-{4-{7-[(2R,3R,4S,5R)-3,4-dihydroxy-5-(hydroxymethyl)tetrahydrofuran-2-yl]-7H-[1,2,4]triazolo[3,4-i]purin-3-yl}phenyl}acetamide]	6.4 nM	3 nM	132 °C	no agonistic activity	> 10 µM	> 10 µM
OC[C@H]1O[C@@H](n2cnc3c2ncn2c(-c4ccc(-c5ccccc5)cc4)nnc32)[C@H](O)[C@@H]1O [Compound 8, (2R,3R,4S,5R)-2-{3-{[1,1′-biphenyl]-4-yl}-7H-[1,2,4]triazolo[3,4-i]purin-7-yl}-5-(hydroxymethyl)tetrahydrofuran-3,4-diol]	7510 nM	3510 nM	280 °C	–	–	–
OC[C@H]1O[C@@H](n2cnc3c2ncn2c(-c4ccc(C(F)(F)F)cc4C(F)(F)F)nnc32)[C@H](O)[C@@H]1O [Compound 6, (2R,3R,4S,5R)-2-{3-[2,4-di(trifluoromethyl)phenyl]-7H-[1,2,4]triazolo[3,4-i]purin-7-yl}-5-(hydroxymethyl)tetrahydrofuran-3,4-diol]	> 10000 nM	> 10000 nM	–	–	–	–
OC[C@H]1O[C@@H](n2cnc3c2ncn2c(-c4ccc(-c5ccccn5)cc4)nnc32)[C@@H](O)[C@H]1O [Compound 7, (2R,3S,4R,5R)-2-{3-[4-(pyridin-2-yl)phenyl]-7H-[1,2,4]triazolo[3,4-i]purin-7-yl}-5-(hydroxymethyl)tetrahydrofuran-3,4-diol]	> 10000 nM	> 10000 nM	172 °C	–	–	–
OC[C@H]1O[C@@H](n2cnc3c2ncn2c(-c4ccc(OCc5ccc(F)cc5)cc4)nnc32)[C@H](O)[C@@H]1O [Compound 4, (2R,3R,4S,5R)-2-{3-{4-[(4-fluorobenzyl)oxy]phenyl}-7H-[1,2,4]triazolo[3,4-i]purin-7-yl}-5-(hydroxymethyl)tetrahydrofuran-3,4-diol]	3.9 nM	1.8 nM	112 °C	no agonistic activity	> 10 µM	> 10 µM
OC[C@H]1O[C@@H](n2cnc3c2ncn2c(-c4cccc(OCc5ccccc5)c4)nnc32)[C@H](O)[C@@H]1O [Compound 5, (2R,3R,4S,5R)-2-{3-[3-(benzyloxy)phenyl]-7H-[1,2,4]triazolo[3,4-i]purin-7-yl}-5-(hydroxymethyl)tetrahydrofuran-3,4-diol]	6.2 nM	2.9 nM	76 °C	no agonistic activity	> 10 µM	> 10 µM
OC[C@H]1O[C@@H](n2cnc3c2ncn2c(C4CCCC4)nnc32)[C@H](O)[C@@H]1O [Compound 2, (2R,3R,4S,5R)-2-{3-cyclopentyl-7H-[1,2,4]triazolo[3,4-i]purin-7-yl}-5-(hydroxymethyl)tetrahydrofuran-3,4-diol]	3.9 nM	1.8 nM	84 °C	no agonistic activity	> 10 µM	> 10 µM

The remaining lines, values ahead:

IC50 [1]	Ki [1]	melting point	agonistic activity at hA2AAR (cAMP production) [2]	EC50 [2, 3]	EC50 [2, 4]	Structure (SMILES)
> 10000 nM	> 10000 nM	130 °C	–	–	–	OC[C@H]1O[C@@H](n2cnc3c2ncn2c(C4CCCCC4)nnc32)[C@H](O)[C@@H]1O [Compound 13, (2R,3R,4S,5R)-2-{3-cyclohexyl-7H-[1,2,4]triazolo[3,4-i]purin-7-yl}-5-(hydroxymethyl)tetrahydrofuran-3,4-diol]
3.9 nM	1.8 nM	216 °C	no agonistic activity	> 10 µM	> 10 µM	OC[C@H]1O[C@@H](n2cnc3c2ncn2c(-c4cncs4)nnc32)[C@@H](O)[C@H]1O [Compound 12, (2R,3S,4R,5R)-2-{3-(thiazol-5-yl)-7H-[1,2,4]triazolo[3,4-i]purin-7-yl}-5-(hydroxymethyl)tetrahydrofuran-3,4-diol]
4.3 nM	2 nM	118 °C	no agonistic activity	> 10 µM	> 10 µM	CCCOc1ccc(-c2nnc3c4ncn([C@@H]5O[C@H](CO)[C@H](O)[C@@H]5O)c4ncn23)cc1 [Compound 9, (2R,3S,4R,5R)-2-{3-(4-propoxyphenyl)-7H-[1,2,4]triazolo[3,4-i]purin-7-yl}-5-(hydroxymethyl)tetrahydrofuran-3,4-diol]
> 10000 nM	> 10000 nM	222 °C	–	–	–	OC[C@H]1O[C@@H](n2cnc3c2ncn2c(-c4ccc(Br)cn4)nnc32)[C@H](O)[C@@H]1O [Compound 11, (2R,3R,4S,5R)-2-{3-(5-bromopyridin-2-yl)-7H-[1,2,4]triazolo[3,4-i]purin-7-yl}-5-(hydroxymethyl)tetrahydrofuran-3,4-diol]
> 10000 nM	> 10000 nM	124 °C	–	–	–	OC[C@H]1O[C@@H](n2cnc3c2ncn2c(-c4ccc(C(F)(F)F)cc4)nnc32)[C@@H](O)[C@H]1O [Compound 10, (2R,3S,4R,5R)-2-{3-[4-(trifluoromethyl)phenyl]-7H-[1,2,4]triazolo[3,4-i]purin-7-yl}-5-(hydroxymethyl)tetrahydrofuran-3,4-diol]
